Format in all cases: functional
Assay [1] relates to Onchocerca lienalis. Briefly: MMV: Percent motility assay at a compound concentration of 3.1e-6 M. Activity score legend: 3: Active, 2: Moderately active; 1: Inactive, 0: Toxic. The settings on record: at 3.1 µM.
Assay [2] relates to Onchocerca lienalis. Briefly: MMV: Percent motility assay at a compound concentration of 7.8e-7 M. Activity score legend: 3: Active, 2: Moderately active; 1: Inactive, 0: Toxic. The note with it: at 0.78 µM.
Assay [3] relates to Onchocerca lienalis. Briefly: MMV: Percent motility assay at a compound concentration of 1.25e-5 M. Activity score legend: 3: Active, 2: Moderately active; 1: Inactive, 0: Toxic. The note with it: at 12.5 µM.
For assay [4], the system named is Onchocerca lienalis. Briefly: MMV: Percent motility assay at a compound concentration of 1.9e-7 M. Activity score legend: 3: Active, 2: Moderately active; 1: Inactive, 0: Toxic. The settings on record: at 0.19 µM.

Molecules are shown by their SMILES.

As to `O=C(Nc1ccc(Cl)c(Cl)c1)Nc1ccc(Cl)c(Cl)c1`, the Motility with Onchocerca lienalis [1], with Onchocerca lienalis [2], in the assay on Onchocerca lienalis [3] and in the assay with Onchocerca lienalis [4] was 100% in each case.
`COc1ccc(-c2nc(N3CCN(C(=O)C4CCCCC4)CC3)c3c4c(sc3n2)CCCC4)cc1`: the Motility in the assay on Onchocerca lienalis [1], in the assay with Onchocerca lienalis [2], in the assay with Onchocerca lienalis [3] and in the assay with Onchocerca lienalis [4] was 100% throughout.
`COc1ccc(CCN2C(=O)c3[nH]nc(-c4cc(Cl)c(C)cc4O)c3C2c2ccccc2F)cc1` (centres undefined): the Motility with Onchocerca lienalis [1], in the assay with Onchocerca lienalis [2], in the assay with Onchocerca lienalis [3] and in the assay with Onchocerca lienalis [4] was 100% throughout.
As to `CCOc1ccc(N2C(N)=NC(N)=NC2(C)C)cc1.Cl`, the Motility with Onchocerca lienalis [1], with Onchocerca lienalis [2], with Onchocerca lienalis [3] and in the assay on Onchocerca lienalis [4] was 100% in each case.
Consider `O=C(CCl)NCCOc1ccc(Cl)cc1Cl`, for which the Motility with Onchocerca lienalis [1], in the assay on Onchocerca lienalis [2], in the assay with Onchocerca lienalis [3] and with Onchocerca lienalis [4] was 100% each time.
Regarding `Oc1ccc(-c2nc(-c3ccc4oc5ccc(-c6[nH]c(-c7ccc(O)cc7)nc6-c6ccccc6)cc5c4c3)c(-c3ccccc3)[nH]2)cc1`, the Motility in the assay on Onchocerca lienalis [1], in the assay on Onchocerca lienalis [2], in the assay on Onchocerca lienalis [3] and in the assay on Onchocerca lienalis [4] was 100% in each case.
Take `COc1ccc(CCn2c(=N)c(C(=O)NCc3cccnc3)cc3c(=O)n4cccc(C)c4nc32)cc1`: the Motility in the assay with Onchocerca lienalis [1], with Onchocerca lienalis [2], with Onchocerca lienalis [3] and in the assay on Onchocerca lienalis [4] was 100% in each case.
Turning to `COc1ccc(Nc2cc(C)nc(NCc3ccccc3)n2)cc1`, the Motility came out at 100% in the assay with Onchocerca lienalis [1], 100% with Onchocerca lienalis [2], 66.66% with Onchocerca lienalis [3] and 100% in the assay on Onchocerca lienalis [4].
In the case of `O=C1c2ccc3c4c(ccc(c24)C(=O)N1CCCCO)C(=O)N(CCCCO)C3=O`, the Motility in the assay on Onchocerca lienalis [1], in the assay on Onchocerca lienalis [2], in the assay on Onchocerca lienalis [3] and in the assay on Onchocerca lienalis [4] was 100% throughout.
On to `COc1ccc(C(=O)C(CCC(CNC(C)(C)C)C(=O)c2ccc(OC)cc2)CNC(C)(C)C)cc1` (centres undefined), for which the Motility in the assay with Onchocerca lienalis [1], in the assay with Onchocerca lienalis [2], in the assay on Onchocerca lienalis [3] and with Onchocerca lienalis [4] was 100% in each case.
Consider `CN1C=C(c2ccc3ccccc3n2)C(c2c[nH]c3ccccc23)c2ccccc21` (centres undefined), for which the Motility in the assay on Onchocerca lienalis [1] was determined as 100%; with Onchocerca lienalis [2] it was 100%; in the assay with Onchocerca lienalis [3] it was 33.33%; with Onchocerca lienalis [4], 100%.
`OC(CNC1CCCCC1)Cn1c2ccc(I)cc2c2cc(I)ccc21` (centres undefined): the Motility in the assay on Onchocerca lienalis [1], in the assay on Onchocerca lienalis [2], in the assay with Onchocerca lienalis [3] and with Onchocerca lienalis [4] was 100% each time.
Turning to `COc1cc(CNCCc2ccc(Cl)cc2)cc(OC)c1O`, the Motility in the assay with Onchocerca lienalis [1], in the assay on Onchocerca lienalis [2], with Onchocerca lienalis [3] and with Onchocerca lienalis [4] was 100% in each case.
`Oc1ccc(Br)cc1CN1CCN(Cc2ccc(Cl)cc2)CC1`: the Motility in the assay with Onchocerca lienalis [1], in the assay on Onchocerca lienalis [2], with Onchocerca lienalis [3] and in the assay on Onchocerca lienalis [4] was 100% each time.
For the compound `CC(C)(C)c1ccc(C2CC3=Nc4ccccc4N(C(=O)c4ccccc4Cl)C(c4ccc(F)cc4)C3=C(O)C2)cc1` (centres undefined), the Motility in the assay with Onchocerca lienalis [1], in the assay with Onchocerca lienalis [2], in the assay on Onchocerca lienalis [3] and with Onchocerca lienalis [4] was 100% in each case.
On to `CN1CCN(c2nc(Nc3ccc(O)cc3)nc3ccccc23)CC1.Cl`, for which the Motility in the assay with Onchocerca lienalis [1], with Onchocerca lienalis [2], in the assay with Onchocerca lienalis [3] and in the assay with Onchocerca lienalis [4] was 100% each time.

The values above are taken from ChEMBL document CHEMBL3137381, “MMV Box Onchocerca lienalis screening set”.
